# Data taken from US10844077B2, “Thiazolyl-containing compounds for treating proliferative diseases” (Dana-Farber Cancer Institute, Inc., priority 2014, dated 2020).
# Values joined by “and” are separate entries in the source; they are usually repeats but may differ in a detail not shown here. Equal entries are not always repeated. Where two headings read alike, the source gives them in different places.
# Columns and labels:
# Format in all cases: cell-based
# [1] = biological target: kinases in BCWM.1 cells (Homo sapiens, UniProt P23743); settings: DGKA; ATP; 1 μM; GF
# Procedure: (§1) The cells were harvested and lysed. […] Bound kinases were identified and quantitated by ACTIVX as described in Patricelli et al., Biochemistry, 2007, 46(2): 350-358. The compounds were tested in duplicates against duplicate or quadruplicate control samples.
# [2] = biological target: kinases in BCWM.1 cells (Homo sapiens, UniProt P49761); settings: CLK3; ATP Loop; 1 μM; GF
# Procedure: as §1
# [3] = biological target: kinases in BCWM.1 cells (Homo sapiens, UniProt Q9Y2K2); settings: QSK; Lys2; 1 μM, 90 min; GF
# Procedure: as §1
# [4] = biological target: kinases in BCWM.1 cells (Homo sapiens, UniProt P41240); settings: CSK; Activation Loop; 1 μM; GF
# kinases in BCWM.1 cells (Homo sapiens, UniProt P41240), sequence (P41240 2-450 limits assumed): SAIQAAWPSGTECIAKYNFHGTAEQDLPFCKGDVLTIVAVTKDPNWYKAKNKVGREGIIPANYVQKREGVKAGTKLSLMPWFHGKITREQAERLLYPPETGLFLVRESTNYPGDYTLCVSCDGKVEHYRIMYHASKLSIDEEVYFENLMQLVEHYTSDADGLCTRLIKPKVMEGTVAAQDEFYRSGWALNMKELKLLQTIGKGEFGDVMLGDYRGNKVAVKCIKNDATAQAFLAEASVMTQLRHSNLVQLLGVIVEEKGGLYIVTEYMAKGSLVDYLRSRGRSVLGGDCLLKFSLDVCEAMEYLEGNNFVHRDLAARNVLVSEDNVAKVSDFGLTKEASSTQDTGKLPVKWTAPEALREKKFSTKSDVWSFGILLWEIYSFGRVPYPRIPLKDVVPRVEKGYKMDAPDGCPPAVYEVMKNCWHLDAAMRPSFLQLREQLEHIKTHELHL
# Procedure: as §1
# [5] = biological target: kinases in BCWM.1 cells (Homo sapiens, UniProt Q8IVH8); settings: KHS2; Lys1; 1 μM; GF
# Procedure: as §1
# [6] = biological target: kinases in BCWM.1 cells (Homo sapiens, UniProt P49841); settings: GSK3B; Lys2; 1 μM; GF
# Procedure: as §1
# [7] = biological target: kinases in BCWM.1 cells (Homo sapiens, UniProt Q96GX5); settings: MASTL, 1 μM, GF
# Procedure: as §1
# [8] = biological target: kinases in BCWM.1 cells (Homo sapiens, UniProt Q9Y6E0); settings: MST3; Lys2; 1 μM; GF
# Procedure: as §1
# [9] = biological target: kinases in BCWM.1 cells (Homo sapiens, UniProt Q9Y6R4); settings: MAP3K4; Lys2; 1 μM; GF
# Procedure: as §1
# [10] = biological target: kinases in BCWM.1 cells (Homo sapiens, UniProt P31749); settings: AKT1; ATP Loop; 1 μM; GF
# Procedure: as §1
# [11] = biological target: kinases in BCWM.1 cells (Homo sapiens, UniProt P50613); settings: CDK7; Lys2; 1 μM; GF
# kinases in BCWM.1 cells (Homo sapiens, UniProt P50613), sequence (P50613 2-346 limits assumed): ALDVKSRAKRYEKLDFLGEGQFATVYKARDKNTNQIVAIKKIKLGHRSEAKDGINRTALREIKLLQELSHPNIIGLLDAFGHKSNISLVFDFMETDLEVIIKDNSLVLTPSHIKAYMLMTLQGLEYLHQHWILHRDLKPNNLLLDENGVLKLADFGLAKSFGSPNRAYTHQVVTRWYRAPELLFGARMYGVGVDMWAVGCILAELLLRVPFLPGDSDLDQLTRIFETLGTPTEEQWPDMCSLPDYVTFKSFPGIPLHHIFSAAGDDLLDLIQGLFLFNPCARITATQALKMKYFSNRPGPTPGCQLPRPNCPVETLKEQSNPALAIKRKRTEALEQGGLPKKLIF
# Procedure: as §1
# [12] = biological target: kinases in BCWM.1 cells (Homo sapiens, UniProt P49840); settings: GSK3A; Lys2; 1 μM; GF
# kinases in BCWM.1 cells (Homo sapiens, UniProt P49840), sequence (P49840 2-483 limits assumed): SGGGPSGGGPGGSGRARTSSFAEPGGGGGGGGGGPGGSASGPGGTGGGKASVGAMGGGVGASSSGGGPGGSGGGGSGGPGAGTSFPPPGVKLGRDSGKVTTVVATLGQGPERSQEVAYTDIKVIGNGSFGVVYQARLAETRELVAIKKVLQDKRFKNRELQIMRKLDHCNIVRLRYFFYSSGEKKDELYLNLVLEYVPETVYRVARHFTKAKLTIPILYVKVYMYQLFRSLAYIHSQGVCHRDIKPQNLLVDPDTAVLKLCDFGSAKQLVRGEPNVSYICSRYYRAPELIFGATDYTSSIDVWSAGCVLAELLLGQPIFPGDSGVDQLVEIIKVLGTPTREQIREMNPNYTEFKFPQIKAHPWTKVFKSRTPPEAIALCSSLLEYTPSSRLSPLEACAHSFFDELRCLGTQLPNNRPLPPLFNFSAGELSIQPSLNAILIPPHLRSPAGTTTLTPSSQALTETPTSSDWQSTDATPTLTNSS
# Procedure: as §1
# [13] = biological target: kinases in BCWM.1 cells (Homo sapiens, UniProt O14936); settings: CASK; Lys1; 1 μM; GF
# Procedure: as §1
# [14] = biological target: kinases in BCWM.1 cells (Homo sapiens, UniProt P17612); settings: PKACa; Lys2; 1 μM, 90 min; GF
# Procedure: as §1
# [15] = biological target: kinases in BCWM.1 cells (Homo sapiens, UniProt P15056); settings: BRAF; Lys2; 1 μM; GF
# kinases in BCWM.1 cells (Homo sapiens, UniProt P15056), sequence (P15056 2-766 limits assumed): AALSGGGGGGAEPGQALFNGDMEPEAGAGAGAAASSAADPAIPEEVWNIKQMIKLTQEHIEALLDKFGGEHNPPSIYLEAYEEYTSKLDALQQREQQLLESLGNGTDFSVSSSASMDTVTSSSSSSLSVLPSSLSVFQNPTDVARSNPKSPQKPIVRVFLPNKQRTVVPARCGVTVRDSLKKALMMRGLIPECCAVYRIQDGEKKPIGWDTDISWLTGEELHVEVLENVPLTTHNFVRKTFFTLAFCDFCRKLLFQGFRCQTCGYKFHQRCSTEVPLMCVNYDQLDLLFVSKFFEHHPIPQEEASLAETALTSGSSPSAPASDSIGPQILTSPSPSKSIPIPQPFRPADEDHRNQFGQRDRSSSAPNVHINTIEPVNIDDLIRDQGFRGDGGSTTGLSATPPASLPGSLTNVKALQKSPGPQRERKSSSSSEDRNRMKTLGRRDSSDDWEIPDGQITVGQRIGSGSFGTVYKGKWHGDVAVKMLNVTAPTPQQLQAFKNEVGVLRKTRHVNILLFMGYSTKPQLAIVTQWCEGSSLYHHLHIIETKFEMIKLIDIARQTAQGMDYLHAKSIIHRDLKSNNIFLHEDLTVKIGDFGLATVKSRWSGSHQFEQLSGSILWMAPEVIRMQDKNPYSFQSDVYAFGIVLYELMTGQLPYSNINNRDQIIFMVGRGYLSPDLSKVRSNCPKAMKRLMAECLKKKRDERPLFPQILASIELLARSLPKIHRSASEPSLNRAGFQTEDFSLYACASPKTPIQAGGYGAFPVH
# Procedure: as §1
# [16] = biological target: kinases in BCWM.1 cells (Homo sapiens, UniProt O95835); settings: LATS1; Lys1; 1 μM; GF
# Procedure: as §1
# [17] = biological target: kinases in BCWM.1 cells (Homo sapiens, UniProt P51617); settings: IRAK1; Lys2; 1 μM; GF
# Procedure: as §1
# [18] = biological target: kinases in BCWM.1 cells (Homo sapiens, UniProt Q5S007); settings: LRRK2; Lys2; 1 μM; GF
# Procedure: as §1
# [19] = biological target: kinases in BCWM.1 cells (Homo sapiens, UniProt P45985); settings: MAP2K4; Lys2; 1 μM; GF
# kinases in BCWM.1 cells (Homo sapiens, UniProt P45985), sequence (P45985 2-399 limits assumed): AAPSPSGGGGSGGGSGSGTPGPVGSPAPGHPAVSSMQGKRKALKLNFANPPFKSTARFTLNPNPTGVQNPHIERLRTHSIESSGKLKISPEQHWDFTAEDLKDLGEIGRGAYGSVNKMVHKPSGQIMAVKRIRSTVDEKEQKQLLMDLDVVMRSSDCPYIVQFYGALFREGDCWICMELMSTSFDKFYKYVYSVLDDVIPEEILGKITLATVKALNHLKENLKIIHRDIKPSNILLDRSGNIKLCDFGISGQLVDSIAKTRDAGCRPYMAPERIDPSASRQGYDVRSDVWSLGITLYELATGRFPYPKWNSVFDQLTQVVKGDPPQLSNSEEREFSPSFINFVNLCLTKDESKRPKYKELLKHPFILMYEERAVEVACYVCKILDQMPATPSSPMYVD
# Procedure: as §1
# [20] = biological target: kinases in BCWM.1 cells (Homo sapiens, UniProt Q13163); settings: MAP2K5; Lys2; 1 μM; GF
# Procedure: as §1
# [21] = biological target: kinases in BCWM.1 cells (Homo sapiens, UniProt P11802); settings: CDK4; Lys2; 1 μM; GF
# kinases in BCWM.1 cells (Homo sapiens, UniProt P11802), sequence (P11802 2-303 limits assumed): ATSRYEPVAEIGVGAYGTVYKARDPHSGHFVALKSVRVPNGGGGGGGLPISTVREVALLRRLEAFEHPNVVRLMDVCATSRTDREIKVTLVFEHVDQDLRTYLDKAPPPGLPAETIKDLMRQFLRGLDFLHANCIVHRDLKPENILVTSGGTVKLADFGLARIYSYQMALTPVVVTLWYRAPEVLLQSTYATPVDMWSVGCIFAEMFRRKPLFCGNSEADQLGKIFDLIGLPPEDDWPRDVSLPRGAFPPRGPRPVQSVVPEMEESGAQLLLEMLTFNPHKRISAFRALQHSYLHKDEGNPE
# Procedure: as §1
# [22] = biological target: kinases in BCWM.1 cells (Homo sapiens, UniProt O94804); settings: LOK; Lys2; 1 μM; GF
# Procedure: as §1
# [23] = biological target: kinases in BCWM.1 cells (Homo sapiens, UniProt Q13535); settings: ATR; ATP; 1 μM; GF
# Procedure: as §1
# [24] = biological target: kinases in BCWM.1 cells (Homo sapiens, UniProt O14976); settings: GAK; Lys2; 1 μM; GF
# kinases in BCWM.1 cells (Homo sapiens, UniProt O14976), sequence (O14976 2-1311 limits assumed): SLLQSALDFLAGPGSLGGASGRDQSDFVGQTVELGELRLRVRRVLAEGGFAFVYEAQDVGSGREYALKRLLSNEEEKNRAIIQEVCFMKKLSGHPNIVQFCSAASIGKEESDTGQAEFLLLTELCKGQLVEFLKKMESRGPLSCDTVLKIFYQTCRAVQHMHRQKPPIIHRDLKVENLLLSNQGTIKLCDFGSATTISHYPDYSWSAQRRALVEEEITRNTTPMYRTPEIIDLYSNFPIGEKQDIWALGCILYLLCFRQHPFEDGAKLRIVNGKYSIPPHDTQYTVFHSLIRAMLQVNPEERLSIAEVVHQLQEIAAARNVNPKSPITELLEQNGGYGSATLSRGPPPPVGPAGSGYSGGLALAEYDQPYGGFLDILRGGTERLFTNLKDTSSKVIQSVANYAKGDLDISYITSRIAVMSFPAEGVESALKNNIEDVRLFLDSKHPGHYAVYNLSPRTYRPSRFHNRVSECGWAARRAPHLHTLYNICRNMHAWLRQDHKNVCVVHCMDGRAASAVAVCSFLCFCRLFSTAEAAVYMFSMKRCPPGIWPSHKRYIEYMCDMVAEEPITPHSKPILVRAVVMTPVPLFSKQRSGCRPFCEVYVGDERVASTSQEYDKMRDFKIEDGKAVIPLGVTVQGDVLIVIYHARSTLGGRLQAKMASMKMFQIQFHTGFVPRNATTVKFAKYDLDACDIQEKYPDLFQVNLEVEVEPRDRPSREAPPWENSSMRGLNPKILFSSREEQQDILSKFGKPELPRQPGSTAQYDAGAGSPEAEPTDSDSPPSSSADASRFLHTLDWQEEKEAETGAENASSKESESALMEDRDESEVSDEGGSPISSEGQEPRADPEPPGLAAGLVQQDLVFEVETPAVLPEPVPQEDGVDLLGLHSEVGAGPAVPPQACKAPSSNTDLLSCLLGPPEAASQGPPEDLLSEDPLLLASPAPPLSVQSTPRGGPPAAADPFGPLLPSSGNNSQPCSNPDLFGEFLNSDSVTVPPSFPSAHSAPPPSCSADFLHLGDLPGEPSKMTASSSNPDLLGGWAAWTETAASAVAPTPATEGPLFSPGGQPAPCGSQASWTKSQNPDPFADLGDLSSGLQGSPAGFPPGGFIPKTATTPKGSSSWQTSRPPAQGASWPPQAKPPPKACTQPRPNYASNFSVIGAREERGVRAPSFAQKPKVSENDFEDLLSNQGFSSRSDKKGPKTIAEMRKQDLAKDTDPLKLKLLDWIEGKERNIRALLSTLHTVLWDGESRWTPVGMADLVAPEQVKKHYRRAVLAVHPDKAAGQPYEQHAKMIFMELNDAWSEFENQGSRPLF
# Procedure: as §1
# [25] = biological target: kinases in BCWM.1 cells (Homo sapiens, UniProt P27361); settings: Erk1; Lys2; 1 μM; GF
# kinases in BCWM.1 cells (Homo sapiens, UniProt P27361), sequence (P27361 2-379 limits assumed): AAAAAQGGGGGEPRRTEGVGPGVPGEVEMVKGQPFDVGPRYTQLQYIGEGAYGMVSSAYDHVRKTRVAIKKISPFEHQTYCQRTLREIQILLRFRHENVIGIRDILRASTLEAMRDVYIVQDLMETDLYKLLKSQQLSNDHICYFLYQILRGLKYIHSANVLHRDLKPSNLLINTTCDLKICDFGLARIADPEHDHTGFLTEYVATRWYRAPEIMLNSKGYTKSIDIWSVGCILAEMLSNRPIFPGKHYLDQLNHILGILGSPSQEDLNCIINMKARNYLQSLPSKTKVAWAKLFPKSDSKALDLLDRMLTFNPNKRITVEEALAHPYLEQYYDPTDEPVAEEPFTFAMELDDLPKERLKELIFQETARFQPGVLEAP
# Procedure: as §1
# [26] = biological target: kinases in BCWM.1 cells (Homo sapiens, UniProt O14733); settings: MAP2K7; Lys2; 1 μM; GF
# kinases in BCWM.1 cells (Homo sapiens, UniProt O14733), sequence (O14733 2-419 limits assumed): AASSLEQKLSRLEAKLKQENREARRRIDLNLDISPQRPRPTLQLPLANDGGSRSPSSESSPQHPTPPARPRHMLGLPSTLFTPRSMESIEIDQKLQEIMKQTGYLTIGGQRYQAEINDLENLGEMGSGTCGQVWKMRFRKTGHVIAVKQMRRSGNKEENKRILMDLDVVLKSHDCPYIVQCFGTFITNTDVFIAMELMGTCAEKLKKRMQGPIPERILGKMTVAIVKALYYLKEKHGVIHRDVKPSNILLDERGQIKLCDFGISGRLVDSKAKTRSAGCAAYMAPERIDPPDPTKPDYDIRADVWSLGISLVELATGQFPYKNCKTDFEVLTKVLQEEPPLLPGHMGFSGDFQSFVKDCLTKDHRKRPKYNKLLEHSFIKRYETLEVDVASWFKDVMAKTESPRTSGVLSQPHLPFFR
# Procedure: as §1
# [27] = biological target: kinases in BCWM.1 cells (Homo sapiens, UniProt P41279); settings: COT; ATP Loop; 1 μM; GF
# Procedure: as §1
compound,measurement,setting,value
CCC(=O)N1CC[C@H](Nc2nccc(Nc3ncc(C(=O)Nc4c(C)cccc4C)s3)n2)C1 [Example I-9],% change of MS signal compared to control sample,[1],−1.5% and −6.6%
same,% change of MS signal compared to control sample,[2],−19% and −10.3%
same,% change of MS signal compared to control sample,[3],2.5%
same,% change of MS signal compared to control sample,[4],−6% and 1.5%
same,% change of MS signal compared to control sample,[5],−23.6% and −22.7%
same,% change of MS signal compared to control sample,[6],−9.8% and −1.3%
same,% change of MS signal compared to control sample,[7]; ATP Loop,0.4% and 1.8%
same,% change of MS signal compared to control sample,[7]; Lys1,2.4% and 8%
same,% change of MS signal compared to control sample,[8],−1.9% and −1.4%
same,% change of MS signal compared to control sample,[9],3.2% and 10.9%
same,% change of MS signal compared to control sample,[10],−25.1% and −16.8%
same,% change of MS signal compared to control sample,[11],1.3% and 5.1%
same,% change of MS signal compared to control sample,[12],2.3% and 1.9%
same,% change of MS signal compared to control sample,[13],−10.4%
same,% change of MS signal compared to control sample,[14],−8.4%
same,% change of MS signal compared to control sample,[15],−18.3% and −12.9%
same,% change of MS signal compared to control sample,[16],−2.8% and 5.4%
same,% change of MS signal compared to control sample,[17],−2.6% and −3.2%
same,% change of MS signal compared to control sample,[18],−26.4% and −21.7%
same,% change of MS signal compared to control sample,[19],−5.4% and −2.1%
same,% change of MS signal compared to control sample,[20],16.8% and 16.3%
same,% change of MS signal compared to control sample,[21],1.2% and 3.4%
same,% change of MS signal compared to control sample,[22],26.2% and 15.2%
same,% change of MS signal compared to control sample,[23],28.1% and 16.5%
same,% change of MS signal compared to control sample,[24],33.8%
same,% change of MS signal compared to control sample,[25],−3.1% and 3.1%
same,% change of MS signal compared to control sample,[26],−2.8% and −0.3%
same,% change of MS signal compared to control sample,[27],−37.3% and −40.3%
